According to ChEMBL document CHEMBL2440076, “New triarylpyrazoles as broad-spectrum anticancer agents: design, synthesis, and biological evaluation” (Eur J Med Chem, 2013):

Assays:
A549 = assay: Growth inhibition of human A549/ATCC cells assessed as cell growth at 10 uM after 48 hrs by sulforhodamine B assay; assay type: functional; conditions: A549, 48 h, read-out: Activity
SF-539 = assay: Growth inhibition of human SF539 cells assessed as cell growth at 10 uM after 48 hrs by sulforhodamine B assay; assay type: functional; conditions: SF-539, 48 h, read-out: Activity
MDA-MB-435 [1] = assay: Growth inhibition of human MDA-MB-435 cells assessed as cell growth at 10 uM after 48 hrs by sulforhodamine B assay; assay type: functional; conditions: MDA-MB-435, 48 h, read-out: Activity
HCT-15 [2] = assay: Growth inhibition of human HCT15 cells after 48 hrs by sulforhodamine B assay; assay type: functional; conditions: HCT-15, 48 h
TK-10 [3] = assay: Growth inhibition of human TK10 cells assessed as cell growth at 10 uM after 48 hrs by sulforhodamine B assay; assay type: functional; conditions: TK-10, 48 h, read-out: Activity
T47D [4] = assay: Growth inhibition of human T47D cells assessed as cell growth at 10 uM after 48 hrs by sulforhodamine B assay; assay type: functional; conditions: read-out: Activity
[5] = Growth inhibition of human NCI-ADR-RES cells assessed as cell growth at 10 uM after 48 hrs by sulforhodamine B assay; assay type: functional; conditions: read-out: Activity
HOP-92 = assay: Growth inhibition of human HOP92 cells assessed as cell growth at 10 uM after 48 hrs by sulforhodamine B assay; assay type: functional; conditions: HOP-92, 48 h, read-out: Activity
SW-620 = assay: Growth inhibition of human SW620 cells assessed as cell growth at 10 uM after 48 hrs by sulforhodamine B assay; assay type: functional; conditions: SW-620, 48 h, read-out: Activity
Malme-3M = assay: Growth inhibition of human MALME-3M cells after 48 hrs by sulforhodamine B assay; assay type: functional
[6] = Growth inhibition of human Hs 578T cells after 48 hrs by sulforhodamine B assay; assay type: functional; conditions: for CC50: read-out: LC50 (the source's name)
NCI-H226 = assay: Growth inhibition of human NCI-H226 cells after 48 hrs by sulforhodamine B assay; assay type: functional; conditions: NCI-H226, 48 h; for CC50: read-out: LC50 (the source's name)
MDA-MB-435 [7] = assay: Growth inhibition of human MDA-MB-435 cells after 48 hrs by sulforhodamine B assay; assay type: functional, cell-based; conditions: MDA-MB-435, 48 h; for CC50: read-out: LC50 (the source's name)
SK-MEL-28 = assay: Growth inhibition of human SK-MEL-28 cells assessed as cell growth at 10 uM after 48 hrs by sulforhodamine B assay; assay type: functional; conditions: SK-MEL-28, 48 h, read-out: Activity
MOLT-4 [8] = assay: Growth inhibition of human MOLT4 cells after 48 hrs by sulforhodamine B assay; assay type: functional; conditions: MOLT-4, 48 h; for CC50: read-out: LC50 (the source's name)
MDA-MB-231 [9] = assay: Growth inhibition of human MDA-MB-231 cells after 48 hrs by sulforhodamine B assay; assay type: functional; conditions: MDA-MB-231, 48 h
MOLT-4 [10] = assay: Growth inhibition of human MOLT4 cells assessed as cell growth at 10 uM after 48 hrs by sulforhodamine B assay; assay type: functional; conditions: MOLT-4, 48 h, read-out: Activity
[11] = Growth inhibition of human HCC2998 cells assessed as cell growth at 10 uM after 48 hrs by sulforhodamine B assay; assay type: functional; conditions: HCC 2998, 48 h, read-out: Activity
[12] = Growth inhibition of human NCI-ADR-RES cells after 48 hrs by sulforhodamine B assay; assay type: functional; conditions: for CC50: read-out: LC50 (the source's name)
HL-60(TB) = assay: Growth inhibition of human HL-60(TB) cells assessed as cell growth at 10 uM after 48 hrs by sulforhodamine B assay; assay type: functional; conditions: HL-60, 48 h, read-out: Activity
PC-3 = assay: Growth inhibition of human PC3 cells after 48 hrs by sulforhodamine B assay; assay type: functional, cell-based; conditions: PC-3, 48 h; for CC50: read-out: LC50 (the source's name)
MDA-MB-468 = assay: Growth inhibition of human MDA-MB-468 cells assessed as cell growth at 10 uM after 48 hrs by sulforhodamine B assay; assay type: functional; conditions: MDA-MB-468, 48 h, read-out: Activity
HOP-62 = assay: Growth inhibition of human HOP62 cells after 48 hrs by sulforhodamine B assay; assay type: functional; conditions: HOP-62, 48 h; for CC50: read-out: LC50 (the source's name)
SF-295 = assay: Growth inhibition of human SF295 cells after 48 hrs by sulforhodamine B assay; assay type: functional, cell-based; conditions: SF-295, 48 h; for CC50: read-out: LC50 (the source's name)
A498 = assay: Growth inhibition of human A498 cells assessed as cell growth at 10 uM after 48 hrs by sulforhodamine B assay; assay type: functional; conditions: A498, 48 h, read-out: Activity
T47D [13] = assay: Growth inhibition of human T47D cells after 48 hrs by sulforhodamine B assay; assay type: functional; conditions: for CC50: read-out: LC50 (the source's name)
SN12C = assay: Growth inhibition of human SN12C cells after 48 hrs by sulforhodamine B assay; assay type: functional; conditions: for CC50: read-out: LC50 (the source's name)
TK-10 [14] = assay: Growth inhibition of human TK10 cells after 48 hrs by sulforhodamine B assay; assay type: functional; conditions: TK-10, 48 h; for CC50: read-out: LC50 (the source's name)
HCT-15 [15] = assay: Growth inhibition of human HCT15 cells assessed as cell growth at 10 uM after 48 hrs by sulforhodamine B assay; assay type: functional; conditions: HCT-15, 48 h, read-out: Activity
CAKI-1 = assay: Growth inhibition of human CAKI-1 cells after 48 hrs by sulforhodamine B assay; assay type: functional; conditions: CAKI-1, 48 h; for CC50: read-out: LC50 (the source's name)
RPMI-8226 = assay: Growth inhibition of human RPMI8226 cells assessed as cell growth at 10 uM after 48 hrs by sulforhodamine B assay; assay type: functional; conditions: RPMI-8226, 48 h, read-out: Activity
HCT-116 = assay: Growth inhibition of human HCT116 cells after 48 hrs by sulforhodamine B assay; assay type: functional; conditions: HCT-116, 48 h; for CC50: read-out: LC50 (the source's name)
COLO 205 = assay: Growth inhibition of human COLO205 cells after 48 hrs by sulforhodamine B assay; assay type: functional; conditions: COLO 205, 48 h
MDA-MB-231 [16] = assay: Growth inhibition of human MDA-MB-231 cells assessed as cell growth at 10 uM after 48 hrs by sulforhodamine B assay; assay type: functional; conditions: MDA-MB-231, 48 h, read-out: Activity

## COc1cc(-c2nn(-c3cccc(NC(=O)Nc4ccc(Cl)c(C(F)(F)F)c4)c3)cc2-c2ccncc2)ccc1Cl
A549
  growth at 10 µM: -10.4%
SF-539
  growth at 10 µM: 6.56%
MDA-MB-435 [1]
  growth at 10 µM: -52.3%
HCT-15 [2]
  GI50: 1.23 µM
  LC50: > 32.5 µM
  TGI: 7.05 µM
TK-10 [3]
  growth at 10 µM: 12.6%
T47D [4]
  growth at 10 µM: 0.62%
[5]
  growth at 10 µM: -0.86%
HOP-92
  growth at 10 µM: -37.5%
SW-620
  growth at 10 µM: 15.4%
Malme-3M
  GI50: 0.838 µM
  LC50 (concentration killing 50% of starting cells): > 32.5 µM
  TGI: 2.35 µM
[6]
  GI50: 1.32 µM
  TGI: 18.3 µM
  CC50: > 32.5 µM
NCI-H226
  GI50: 1.82 µM
  TGI: > 32.5 µM
  CC50: > 32.5 µM
MDA-MB-435 [7]
  GI50: 0.683 µM
  IC50: 0.68 µM
  TGI: 1.69 µM
  CC50: > 32.5 µM
SK-MEL-28
  growth at 10 µM: 8.8%
MOLT-4 [8]
  GI50: 1.02 µM
  TGI: 7.96 µM
  CC50: > 32.5 µM
MDA-MB-231 [9]
  GI50: 0.76 µM
  LC50: 13.3 µM
  TGI: 2.6 µM
MOLT-4 [10]
  growth at 10 µM: -2.38%
[11]
  growth at 10 µM: 8.88%
[12]
  GI50: 1.04 µM
  TGI: 7.99 µM
  CC50: > 32.5 µM
HL-60(TB)
  growth at 10 µM: -19.8%
PC-3
  GI50: 0.69 µM
  IC50: 0.69 µM
  TGI: 2.45 µM
  CC50: > 32.5 µM
MDA-MB-468
  growth at 10 µM: -7.22%
HOP-62
  GI50: 1.31 µM
  TGI: 6.49 µM
  CC50: 31 µM
SF-295
  GI50: 0.84 µM
  IC50: 0.84 µM
  TGI: 2.54 µM
  CC50: 14.9 µM
A498
  growth at 10 µM: -6.71%
T47D [13]
  GI50: 1.23 µM
  TGI: > 32.5 µM
  CC50: > 32.5 µM
SN12C
  GI50: 1.14 µM
  TGI: 9.23 µM
  CC50: > 32.5 µM
TK-10 [14]
  GI50: 1.52 µM
  TGI: 13.5 µM
  CC50: > 32.5 µM
HCT-15 [15]
  growth at 10 µM: 9.91%
CAKI-1
  GI50: 0.992 µM
  TGI: 4.72 µM
  CC50: > 32.5 µM
RPMI-8226
  growth at 10 µM: -8.66%
HCT-116
  GI50: 1.17 µM
  TGI: 4.56 µM
  CC50: 21.5 µM
COLO 205
  GI50: 0.711 µM
  LC50 (concentration killing 50% of cells): 3.48 µM
  TGI: 1.54 µM
MDA-MB-231 [16]
  growth at 10 µM: -52.4%

## O=C(Nc1cccc(-n2cc(-c3ccncc3)c(-c3ccc(Cl)c(O)c3)n2)c1)Nc1cccc(C(F)(F)F)c1
A549
  growth at 10 µM: 5.74%
SF-539
  growth at 10 µM: 38.5%
MDA-MB-435 [1]
  growth at 10 µM: 15.6%
HCT-15 [2]
  GI50: 1.51 µM
  LC50: > 32.5 µM
  TGI: > 32.5 µM
TK-10 [3]
  growth at 10 µM: 21.9%
T47D [4]
  growth at 10 µM: 18.5%
[5]
  growth at 10 µM: 24.9%
HOP-92
  growth at 10 µM: -17.7%
SW-620
  growth at 10 µM: 28.5%
Malme-3M
  GI50: 1.81 µM
  LC50 (concentration killing 50% of starting cells): > 32.5 µM
  TGI: 20.1 µM
[6]
  GI50: 3.31 µM
  TGI: > 32.5 µM
  CC50: > 32.5 µM
NCI-H226
  GI50: 7.35 µM
  TGI: > 32.5 µM
  CC50: > 32.5 µM
MDA-MB-435 [7]
  GI50: 1.49 µM
  IC50: 1.49 µM
  TGI: 12.6 µM
  CC50: > 32.5 µM
SK-MEL-28
  growth at 10 µM: 29.4%
MOLT-4 [8]
  GI50: 1.92 µM
  TGI: > 32.5 µM
  CC50: > 32.5 µM
MDA-MB-231 [9]
  GI50: 3.59 µM
  LC50: > 32.5 µM
  TGI: 26.8 µM
MOLT-4 [10]
  growth at 10 µM: 12.5%
[11]
  growth at 10 µM: 40.1%
[12]
  GI50: 2.14 µM
  TGI: > 32.5 µM
  CC50: > 32.5 µM
HL-60(TB)
  growth at 10 µM: 12.5%
PC-3
  GI50: 0.948 µM
  IC50: 0.95 µM
  TGI: 22.5 µM
  CC50: > 32.5 µM
MDA-MB-468
  growth at 10 µM: 10.5%
HOP-62
  GI50: 6.86 µM
  TGI: > 32.5 µM
  CC50: > 32.5 µM
SF-295
  GI50: 0.962 µM
  IC50: 0.96 µM
  TGI: 4.26 µM
  CC50: 29.2 µM
A498
  growth at 10 µM: 17.7%
T47D [13]
  GI50: 2.47 µM
  TGI: > 32.5 µM
  CC50: > 32.5 µM
SN12C
  GI50: 2.01 µM
  TGI: > 32.5 µM
  CC50: > 32.5 µM
TK-10 [14]
  GI50: 2.12 µM
  TGI: > 32.5 µM
  CC50: > 32.5 µM
HCT-15 [15]
  growth at 10 µM: 18.2%
CAKI-1
  GI50: 1.75 µM
  TGI: > 32.5 µM
  CC50: > 32.5 µM
RPMI-8226
  growth at 10 µM: 1.63%
HCT-116
  GI50: 1.39 µM
  TGI: 8.26 µM
  CC50: > 32.5 µM
COLO 205
  GI50: 7.9 µM
  LC50 (concentration killing 50% of cells): > 32.5 µM
  TGI: 23.8 µM
MDA-MB-231 [16]
  growth at 10 µM: 21.3%
